Data published in article PMC3047498 (Journal of andrology, 2010).

Experiments:
[1] = test system: endogenous testosterone production; details: 300 µg/kg acyline, normal healthy men; ref Herbst et al, 2004; cited from earlier work
[2] = test system: endogenous testosterone production; assay: Suppression of endogenous testosterone production by acyline; type: in vivo, men; details: 300 µg/kg acyline; for Serum testosterone concentration 24 hours after acyline administration: before oral testosterone
[3] = testosterone plus finasteride group

Q: For acyline, which “Duration of testosterone suppression” value [1] is on record?
A: 2 weeks

Q: And the “Time to suppress testosterone to castrate levels” value [1]?
A: ≤ 24 h

Q: And the “Serum DHT concentration 24 hours after the acyline injection” value [2, 3]?
A: 0.54 ± 0.32 nmol/L

Q: What about the “Serum testosterone concentration 24 hours after acyline administration” value [2, 3] of the same substance?
A: 2.3 ± 1.4 nmol/L

Q: What about the “Serum DHT concentration 24 hours after the acyline injection” value ([2]; testosterone-only group) of the same substance?
A: 0.6 ± 0.32 nmol/L

Q: And the “Serum testosterone concentration 24 hours after acyline administration” value ([2]; testosterone-only group)?
A: 2.0 ± 1.3 nmol/L
